Source: patent publication US20130004651A1, “SUSTAINED DRUG RELEASE FROM BODY IMPLANTS USING NANOPARTICLE-EMBEDDED POLYMERIC COATING MATERIALS” (priority 2011, published 2013)

Experiment: Sustained release study (fluorescence intensity vs. time)
Type: physicochemical
Method: Step 3: Sustained Release Study
FIGS. 6a and 6b show the sustained release of chloramphenicol (at 1 and 4 molar concentrations, respectively) from the liposomes described above as a function of fluorescence intensity vs. time at a release rate of about 0.65 mg/day.

## O=C(N[C@H](CO)[C@H](O)c1ccc([N+](=O)[O-])cc1)C(Cl)Cl [chloramphenicol]
Sustained release from liposomes, 1 and 4 molar concentrations (FIGS. 6a, 6b)
  release rate: about 0.65 mg/day

## vitamin E
Sustained release from reverse micelles (FIG. 6c)
  release rate: about 113 mg/day
